Several values for one entry are separate records, joined by “and”; a condition that tells them apart may be missing. Identical values can stand only once.

The results in this text go back to paper PMC8199216 (International Journal of Molecular Sciences, 2021).

Assay [1] deals with T1, His-Spindlin1(49–262) (Homo sapiens, UniProt Q9Y657). Description: biochemical.
Description: (§3) To investigate the influence of these modifications on the Spindlin1 inhibitory activity, the fluorescence polarization assay established earlier [31] was used to determine the potency of the compounds.
(§4) Fluorescence polarization assays were carried out as described before [31]. […] For the controls, a buffer solution with the same DMSO concentration as the inhibitor solutions was added to the plate instead of the inhibitor solution, the negative control contained the H3(1–14)K4me3-Fluorescein without Spindlin1. The blank control contained buffer solution with DMSO. Every inhibitor concentration and the controls were done in triplicates. Fluorescence polarization values (mP) were determined after blank correction as IS−G×IP/IS+G×IP×1000 , where G is a device-specific factor and IS and IP are the fluorescence intensities of the S and P plane, respectively. […] Curve fitting was carried out using GraphPad Prism 7, applying a non-linear sigmoidal fit with a variable slope.
For a further assay, the target named is T2, GLP (982–1266) (Homo sapiens, UniProt Q9H9B1).
T2 construct: GLP (982–1266) were cloned, expressed, and purified; made in house
T2 sequence (Q9H9B1 982-1266): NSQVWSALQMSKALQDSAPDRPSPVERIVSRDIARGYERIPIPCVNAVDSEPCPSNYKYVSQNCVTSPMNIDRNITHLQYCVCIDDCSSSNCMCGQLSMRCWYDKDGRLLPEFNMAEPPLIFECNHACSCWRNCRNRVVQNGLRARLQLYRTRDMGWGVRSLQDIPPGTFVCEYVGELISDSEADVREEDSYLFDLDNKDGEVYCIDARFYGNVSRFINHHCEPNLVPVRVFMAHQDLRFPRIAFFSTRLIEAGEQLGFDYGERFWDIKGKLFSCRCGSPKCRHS
Briefly: Coupled enzyme fluorescent histone methyltransferase assay (SAM-SAH conversion). To be noted: fluorescence based coupled enzyme assay. In kind it is biochemical. As to the method:
(§1) Full length of S. solfataricus S-adenosylhomocysteine hydrolase (SAHH) was cloned, expressed, and purified using the published protocol.
(§2) The assay was performed using the previously published protocol. Tested compounds were pre-dissolved in assay buffer (20 mM HEPES pH 7.5, 50 mM NaCl, 0.01% Triton X-100, 3 mM MgCl2, 0.1 mg/mL BSA) with 5 μM of purified SAHH, 1 unit of ADA, 10 μM of H3, and 5 nM of either G9a or GLP as 30 μL in black 96-well plate. […] After incubation for 10 min at room temperature, thiol fluorescent probe IV (20 μM, 50 μL) was added.

For the next assay, the target named is T3, Human G9a (913–1193) (Homo sapiens, UniProt Q96KQ7).
T3 construct: Catalytic domains of Human G9a (913–1193); made in house
T3 sequence (Q96KQ7 913-1193): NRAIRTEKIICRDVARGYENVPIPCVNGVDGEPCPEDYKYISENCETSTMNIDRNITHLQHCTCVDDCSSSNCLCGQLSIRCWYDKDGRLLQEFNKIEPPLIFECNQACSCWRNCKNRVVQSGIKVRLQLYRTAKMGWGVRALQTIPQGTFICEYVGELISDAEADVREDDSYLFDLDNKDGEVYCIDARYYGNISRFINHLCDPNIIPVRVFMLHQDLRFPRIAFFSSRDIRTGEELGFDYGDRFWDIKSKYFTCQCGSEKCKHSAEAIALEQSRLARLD
The assay is described as above. In kind it is biochemical. To be noted: fluorescence based coupled enzyme assay. The procedure: as §1, §2

Assay [2] addresses T1, His-Spindlin1(49–262). To be noted: fluorescence polarization. For orientation: In fluorescence polarisation assays a small probe gives low polarisation when free and higher when bound to something large.
Description: as §3, §4
Setting [3] is: read-out: Spin1 inhibition in percentage at specified concentration.

T1 sequence (Q9Y657 49-262): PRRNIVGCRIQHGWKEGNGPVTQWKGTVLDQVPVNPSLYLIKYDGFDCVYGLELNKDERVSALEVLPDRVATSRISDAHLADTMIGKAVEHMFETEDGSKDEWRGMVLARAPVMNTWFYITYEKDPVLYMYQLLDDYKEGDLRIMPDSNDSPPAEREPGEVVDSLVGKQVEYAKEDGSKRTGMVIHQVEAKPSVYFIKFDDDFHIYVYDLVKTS

For orientation: IC50 means the concentration needed to halve the response being measured. Consider `COc1cc2c(cc1OCCCN1CCC(O)C1)N=C(N)C21CCCC1` (stereo not shown), for which the IC50 entry at Spindlin1 (Spin1) is given as “(S): 478 ± 34”.
Take `COc1cc2c(cc1OCCCN1CCC(O)C1)N=C(N)C21CCCC1` (racemic): the IC50 result against G9a was “(rac): 2321”; at GLP, “(rac): 4432”; at Spindlin1 (Spin1), “(rac): 584 ± 31”.
For the compound `COc1cc2c(cc1OCCCN1CCC(O)C1)N=C(N)C21CCCC1` (racemic) [1q (rac)], the results for the half-maximal inhibitory concentration (IC50) against His-Spindlin1(49–262) [1], against GLP (982–1266) and against Human G9a (913–1193) were 584 nM, 4.43 µM and 2320 nM, respectively.
As to `CCOc1c(OCCCN2CCCC2)cc2c(c1OCC)C1(CCCC1)C(N)=N2` [1a], the “% inhibition at 25 μM” value in the assay with Spindlin1 (Spin1) worked out at 70% @ 25 μM [d]. For the same compound, the “Spindlin1 inhibitory activity (in words)” value at His-Spindlin1(49–262) [2] was “weakly active”. Further, on His-Spindlin1(49–262) [1] (setting [3]), the inhibition at 25 µM is 70%.
In the case of `COc1cc2c(cc1OCCCN1CCC(=O)C1)N=C(N)C21CCCC1` [1b], the “% inhibition at 100 μM” value in the assay on Spindlin1 (Spin1) is 81% @ 100 μM [d]. The “Spindlin1 inhibitory activity (in words)” value at His-Spindlin1(49–262) [2] is recorded as “weakly active”. Also, on His-Spindlin1(49–262) [1] (setting [3]), the inhibition at 100 µM amounted to 81%.
Regarding `COc1cc2c(cc1OCCCCN1CCCC1)N=C(N)C21CCCCC1` [1c], the half-inhibitory concentration (IC50) is > 20000 nM on G9a, > 20 µM against GLP, > 20 µM against GLP (982–1266) and > 20000 nM on Human G9a (913–1193). Further, the “% inhibition at 50 μM” value in the assay on Spindlin1 (Spin1) came out at 42% @ 50 μM [d]. At His-Spindlin1(49–262) [2], the “Spindlin1 inhibitory activity (in words)” value is “inactive”. Moreover, on His-Spindlin1(49–262) [1] (setting [3]), the inhibition at 50 µM was 42%.
`COc1cc2c(cc1OCCN1CCCC1)N=C(N)C21CCCCC1` [1d]: at His-Spindlin1(49–262) [2], the “Spindlin1 inhibitory activity (in words)” value is recorded as “Inactive”.
The same measure, in the same setting: next, `COc1cc2c(cc1OCCN1CCCC1)N=C(N)C21CCC1` [1e]: “Inactive”.
In the case of `COc1cc2c(cc1OCCCN1CCCC1)N=C(N)C21CCCC1` [1f], the IC50 on G9a is 431 nM; against GLP, 0.334 µM; against GLP (982–1266) it was 0.334 µM; on Human G9a (913–1193) it was 431 nM.
Turning to `CCOc1cc2c(cc1OCCCN1CCCC1)N=C(N)C21CCCC1` [1g], the IC50 was 243 nM on G9a, 2.97 µM against GLP, 2.97 µM at GLP (982–1266) and 243 nM against Human G9a (913–1193).
Turning to `COc1c(OCCCN2CCCC2)cc2c(c1C#N)C1(CCCC1)C(N)=N2` [1h], the 50% inhibitory concentration (IC50) amounted to 3900 nM against Spindlin1 (Spin1) and 3900 ± 700 nM on His-Spindlin1(49–262) [1].
With `COc1c(OCCCN2CCCC2)cc2c(c1Cl)C1(CCCC1)C(N)=N2` [1i], the half-inhibitory concentration (IC50) is > 20000 nM at G9a; > 20 µM on GLP; 1600 nM against Spindlin1 (Spin1); 1600 ± 200 nM on His-Spindlin1(49–262) [1]; > 20 µM on GLP (982–1266); > 20000 nM against Human G9a (913–1193).
Consider `COc1c(OCCCN2CCCC2)cc2c(c1OC)C1(CCCC1)C(N)=N2` [1j], for which the half-maximal inhibitory concentration (IC50) against Spindlin1 (Spin1) was found to be 2500 nM; against His-Spindlin1(49–262) [1], 2500 ± 200 nM.
For the compound `COc1c(OCCCN2CCCC2)cc2c(c1C(C)=O)C1(CCCC1)C(N)=N2` [1k], the IC50 at Spindlin1 (Spin1) was found to be 11800 ± 210 nM; against His-Spindlin1(49–262) [1] it was 11800 nM.
The matching figures for `CCOc1cc2c(cc1OCCCN1CCCC1)N=C(N)C21CCCCC1` [1l]: 567 nM and 567 ± 35 nM.
Regarding `CC(C)Oc1cc2c(cc1OCCCN1CCCC1)N=C(N)C21CCC1` [1m], the IC50 was 3300 nM on Spindlin1 (Spin1) and 3300 ± 470 nM at His-Spindlin1(49–262) [1]. Further, the “Spindlin1 inhibitory activity (in words)” value on His-Spindlin1(49–262) [2] is given as “micromolar range”.
Regarding `COc1cc2c(cc1OCCCN1CCCC1)N=C(N)C21CCCCC1` [1n], the IC50 against G9a was 779 nM; at GLP, 0.527 µM; against Spindlin1 (Spin1), 255 nM; against His-Spindlin1(49–262) [1], 255 ± 35 nM; against GLP (982–1266), 0.527 µM; on Human G9a (913–1193), 779 nM.
For `CCC1(CC)C(N)=Nc2cc(OCCCN3CCCC3)c(OC)cc21` [1o], the IC50 is > 20000 nM at G9a; > 20 µM at GLP; 1210 nM and 1210 ± 90 nM against Spindlin1 (Spin1); 1210 ± 90 nM against His-Spindlin1(49–262) [1]; > 20 µM at GLP (982–1266); > 20000 nM against Human G9a (913–1193).
For the compound `COc1cc2c(cc1OCCCN1CCCC1)N=C(N)C2(C)C` [1p], the IC50 was found to be 759 nM at G9a; 0.47 µM on GLP; 157 nM against Spindlin1 (Spin1); 157 ± 12 nM at His-Spindlin1(49–262) [1]; 0.47 µM at GLP (982–1266); 759 nM against Human G9a (913–1193).
As to `COc1cc2c(cc1OCCCN1CC[C@@H](O)C1)N=C(N)C21CCCC1` [1q (R)], the 50% inhibitory concentration (IC50) result against Spindlin1 (Spin1) is “(R): 470 ± 27”; on His-Spindlin1(49–262) [1], 470 nM.
In turn, `COc1cc2c(cc1OCCCN1CC[C@H](O)C1)N=C(N)C21CCCC1` [1q (S)] returned an IC50 on His-Spindlin1(49–262) [1] of 478 nM. This counts as sub-micromolar.
With `CCC1(C)C(N)=Nc2cc(OCCCN3CCCC3)c(OC)cc21` (stereo not shown) [1r], the IC50 worked out at 3190 nM on G9a; 3.19 µM against GLP; 408 nM against Spindlin1 (Spin1); 408 ± 35 nM against His-Spindlin1(49–262) [1]; 3.18 µM against GLP (982–1266); 3190 nM against Human G9a (913–1193).
For the compound `CCC1(C)C(N)=Nc2cc(OCCCN3Cc4ccccc4C3)c(OC)cc21` (stereo not shown) [1s], the concentration for half-maximal inhibition (IC50) was > 20000 nM on G9a; > 20 µM against GLP; 360 nM at Spindlin1 (Spin1); 360 ± 20 nM against His-Spindlin1(49–262) [1]; > 20 µM against GLP (982–1266); > 20000 nM against Human G9a (913–1193). For the same compound, at His-Spindlin1(49–262) [2], the “Spindlin1 inhibitory activity (in words)” value was “nanomolar range”.
With `CCC1(C)C(N)=Nc2cc(OCCCN3CC[C@@H](C)C3)c(OC)cc21` (stereo partly shown) [1t], the concentration for half-maximal inhibition (IC50) against G9a is > 20000 nM; against GLP it was > 20 µM; against Spindlin1 (Spin1), 467 nM; against His-Spindlin1(49–262) [1], 467 ± 15 nM; against GLP (982–1266), > 20 µM; on Human G9a (913–1193) it was > 20000 nM. Further, the “Spindlin1 inhibitory activity (in words)” value at His-Spindlin1(49–262) [2] is “nanomolar range”.
On to `COc1cc2c(cc1OCCCN1CCC(CO)C1)N=C(N)C21CCCC1` (stereo not shown) [1u], for which the concentration for half-maximal inhibition (IC50) on G9a was > 20000 nM; against GLP, > 20 µM; at Spindlin1 (Spin1) it was 1250 nM; at His-Spindlin1(49–262) [1], 1250 ± 50 nM; against GLP (982–1266) it was > 20 µM; against Human G9a (913–1193), > 20000 nM.
